The values that follow are results of earlier work, collected in patent publication US20140302138A1, “EXTENDED RELEASE PHARMACEUTICAL COMPOSITIONS CONTAINING CARBAMAZEPINE” (priority 2011, published 2014).

Turning to `NC(=O)N1c2ccccc2C=Cc2ccccc21` [Carbamazepine, 5H-dibenzo[b,f]azepine-5-carboxamide], the solubility in acetone entry (acetone) is given as “soluble”. For the same compound, the solubility in alcohol result (alcohol) is “soluble”. Moreover, the solubility in water entry (water) is given as “practically insoluble”.
